Experimental data from US20110262555A1, “METHODS AND COMPOSITIONS FOR REDUCING OR PREVENTING VASCULAR CALCIFICATION DURING PERITONEAL DIALYSIS THERAPY” (BAXTER INTERNATIONAL INC., priority 2010, published 2011).
Like-named read-outs stand apart in the source and are kept apart here.

Assays:
female rats = conditions: for diaphragmatic inflammation, severity grade / thickness of the diaphragm section involved by inflammation: 7 days intraperitoneal
Procedure: A maximum tolerated dose study was conducted according to the study design in Table 3. Solutions that were administered were made up of a dextrose concentrate or a modified dextrose concentrate and a buffer concentrate or a modified buffer concentrate mixed in a 3:1 ratio (dextrose:buffer). Each test or control article was administered intraperitoneally once daily for 7 consecutive days to each of five different female rats at volumes of 40 mL/kg via a butterfly needle as a bolus injection. Necropsy was performed one day after the last dose.
Tissue samples of the diaphragms from all rats were trimmed, processed, embedded in paraffin, and sectioned. Hematoxylin and eosin stained slides were prepared and examined by light microscopy. Microscopic observations were subjectively graded based on the relative severity of the change: Grade 1=minimal, Grade 2=mild, Grade 3=moderate, grade 4=marked.

[1] = test system: APOe-KO/CRF mouse model of vascular calcification; conditions: for total aortic calcium content, effect on CRF-induced elevation: daily intraperitoneal, 8 weeks
Procedure: Homozygous apolipoprotein E knockout (apoE^−/−) mice were housed in polycarbonate cages in a pathogen-free, temperature-controlled (25° C.) room with a strict 12-hour light/dark cycle and with free access to lab chow and water. All procedures were in accordance with National Institutes of Health (“NIH”) guidelines for the care and use of experimental animals (NIH publication No. 85-23).
A 2-step procedure was used to create CRF in the mice at 10 weeks of age. Briefly, at age of 8 weeks, cortical electrocauterisation was applied to the right kidney through a 2-cm flank incision and contralateral total nephrectomy was performed through a similar incision 2 weeks later. Other mice underwent a 2-step procedure of sham operations with decapsulation of both kidneys with a 14-day distance between the two operations. Blood samples were taken 2 weeks after nephrectomy, and intra-peritoneal catheters were implanted at this time.
At the end of the study, the heart with the aortic root was then separated from ascending aorta. Cryosections of the aortic root tissue were used for quantification of vascular calcification and were used to assess atherosclerotic lesions at the site of the root. The thoracic part of the aorta was stored at −80° C. and used for quantification of calcium content.
Mice having high LDL will develop atherosclerosis. Those with the added partial nephrectomy will develop kidney impairment and were expected to produce marked vascular calcification of the heart and aorta, thus mimicking the disease seen in many dialysis patients. All groups were treated in a manner to mimic a peritoneal dialysis therapy, with a peritoneal dialysis solution either in the absence of PPi (sham and CRF placebo control groups) or containing two different doses of PPi (as outlined above).
Next, a method was employed whereby morphological image processing algorithms were used for the semi-automated measurement of calcification from sections of aorta stained using von Kossa's silver nitrate procedure (FIGS. 3A and 3B). These were acquired at low magnification power on color images. The process was separated into two sequential phases: 1) segmentation to separate the calcification structures and demarcate the region of the atherosclerotic lesion within the tissue, and 2) the quantification. Calcified structures were measured inside and outside the lesion using a granulometric curve that allows the calculation of statistical parameters of size.

Compound	diaphragmatic inflammation, severity grade (female rats; 600 μM)	thickness of the diaphragm section involved by inflammation (female rats; 600 μM)	diaphragmatic inflammation, severity grade (female rats; 900 μM)	thickness of the diaphragm section involved by inflammation (female rats; 900 μM)	concentration producing chronic inflammation of the peritoneal surface of the diaphragm (local effect) (female rats; intraperitoneal, 7 consecutive days, 40 mL/kg/day, rats)	total aortic calcium content, effect on CRF-induced elevation ([1]; 30 μM PPi in dialysis solution)	total aortic calcium content, effect on CRF-induced elevation ([1]; 150 μM PPi in dialysis solution)	aortic root calcification inside the atherosclerotic lesion (von Kossa) ([1]; high dose PPi (150 μM))	aortic root calcification outside the lesion (von Kossa) ([1]; high dose PPi (150 μM))	aortic root calcification outside the lesion (von Kossa) ([1]; low dose PPi (30 μM))	inhibition of aortic root calcification inside the atherosclerotic lesion (von Kossa) ([1]; low dose PPi (30 μM))
O=P([O-])([O-])OP(=O)(O)O.[Na+].[Na+] [disodium pyrophosphate]	mild (Grade 2)	5-25%	mild in 1 rat and moderate in 4 of 5 rats	up to 50%	≥ 600 µM						
O=P(O)(O)OP(=O)(O)O [pyrophosphate]						moderate reduction, that was not statistically significant	completely blocked the effect of CRF on elevation of aortic calcium	completely prevented the elevation due to CRF	totally blocked	totally blocked	approximately 50%
